Measured values: US9303025B2, “Apoptosis-inducing agents for the treatment of cancer and immune and autoimmune diseases” (AbbVie Inc., priority 2008, dated 2016)

Molecular target: GST-Bcl-2 (Homo sapiens (Human), UniProt P10415)
Assay: Time Resolved-Fluorescence Resonance Energy Transfer (TR-FRET) Bcl-2 binding assay
Settings: GST-Bcl-2 1 nM, F-Bak peptide probe 100 nM, Tb-anti-GST antibody 1 nM; 3 hours at room temperature; Ki by Wang's equation
Method: Tb-anti-GST antibody was purchased from Invitrogen (Catalog No. PV4216).
Representative compounds were serially diluted in dimethyl sulfoxide (DMSO) starting at 50 μM (2× starting concentration; 10% DMSO) and 10 μL were transferred into a 384-well plate. The samples are then mixed on a shaker for 1 minute and incubated for an additional 3 hours at room temperature. For each assay, the probed antibody and protein/probe/antibody were included on each assay plate as negative and positive controls, respectively. Fluorescence was measured on the Envision (Perkin Elmer) using a 340/35 nm excitation filter and 520/525 (F-Bak peptide) and 495/510 nm (Tb-labeled anti-Histidine antibody) emission filters.
The samples were then mixed on a shaker for 1 minute and incubated for an additional 3 hours at room temperature. For each assay, the probe/antibody and protein/probe/antibody were included on each assay plate as negative and positive controls, respectively. Fluorescence was measured on the Envision (Perkin Elmer) using a 340/35 nm excitation filter and 520/525 (F-Bak peptide) and 495/510 nm (Tb-labeled anti-Histidine antibody) emission filters.
The inhibition constant (Ki) is the dissociation constant of an enzyme-inhibitor complex or a protein/small molecule complex, wherein the small molecule is inhibiting binding of one protein to another protein. So a large Ki value indicates a low binding affinity and a small Ki value indicates a high binding affinity.

Chain of GST-Bcl-2 (P10415 whole entry): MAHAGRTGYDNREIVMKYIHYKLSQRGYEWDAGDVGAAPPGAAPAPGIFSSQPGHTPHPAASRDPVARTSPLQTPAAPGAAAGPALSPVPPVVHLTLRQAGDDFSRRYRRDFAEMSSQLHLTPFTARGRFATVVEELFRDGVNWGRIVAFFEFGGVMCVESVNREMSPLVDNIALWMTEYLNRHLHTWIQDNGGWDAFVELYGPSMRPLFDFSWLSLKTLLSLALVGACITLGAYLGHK

| Compound | Ki [nM] |
| --- | --- |
| 4-(4-{[2-(4-chlorophenyl)-4,4-dimethylcyclohex-1-en-1-yl]methyl}piperazin-1-yl)-N-[(4-{[3-(dimethylamino)propyl]amino}-3-nitrophenyl]-2-(3-fluorophenoxy)benzamide [Example 138] | 0.016 |
| CC1(C)CCC(CN2CCN(c3ccc(C(=O)NS(=O)(=O)c4ccc(NCCCN5CCCC5)c([N+](=O)[O-])c4)c(Oc4cccc(Cl)c4F)c3)CC2)=C(c2ccc(Cl)cc2)C1 [Example 149, 2-(3-chloro-2-fluorophenoxy)-4-(4-{[2-(4-chlorophenyl)-4,4-dimethylcyclohex-1-en-1-yl]methyl}piperazin-1-yl)-N-({3-nitro-4-[(3-pyrrolidin-1-ylpropyl)amino]phenyl}sulfonyl)benzamide] | 0.03 |
| CC1(C)CCC(CN2CCN(c3ccc(C(=O)NS(=O)(=O)c4ccc(NCC5CCOCC5)c([N+](=O)[O-])c4)c(Oc4cccc5c4CC(=O)N5)c3)CC2)=C(c2ccc(Cl)cc2)C1 [Example 268, 4-(4-{[2-(4-chlorophenyl)-4,4-dimethylcyclohex-1-en-1-yl]methyl}piperazin-1-yl)-N-({3-nitro-4-[(tetrahydro-2H-pyran-4-ylmethyl)amino]phenyl}sulfonyl)-2-[(2-oxo-2,3-dihydro-1H-indol-4-yl)oxy]benzamide] | 0.042 |
